Data taken from patent US9580713B2 (priority 2011, dated 2017).
Values joined by “and” are separate entries in the source; they are usually repeats but may differ in a detail not shown here. Equal values may be shown once. “Also recorded” adds a separate entry of the source. Read-outs that look alike come from different tables or passages of the source.

How the values were obtained:
[1] = tested on: 78 Psy crcB motif RNA (fluoride riboswitch aptamer); format: binding, Pseudomonas syringae
[2] = tested on: eriC^F-rescued E. coli crcB KO cells
Description: The eriC^F gene from P. syringae DC3000 was amplified from genomic DNA by PCR and cloned into the pCR2.1 TA vector (Invitrogen). The cloned fragment contained the full length eriC^F ORF, the 5′ UTR features described above, and the native promoter to drive expression.
(§1) Growth curves to compare pH conditions used 350 μL of LB (neutral pH) or LBK medium (pH 5.5), 3.5 μL of an overnight culture, and 3.5 μL, of a 10× sodium fluoride or sodium chloride solution. Growth curves with empty or eriC^F-containing plasmid included 100 μg mL^−1 carbenicillin added to the growth medium (2XLB), which was subsequently diluted two-fold to a final concentration of 50 μg mL^−1.

[3] = tested on: fluoride riboswitch from the P. syringae eriC gene fused to lacZ
Description: (§2) Cell growth of WT and crcB KO E. coli strains were measured overnight using a Bioscreen C instrument (Oy Growth Curves Ab Ltd, Finland). The amount of fluoride added to the media was varied to measure the effect on growth at several pH values. Reporter constructs with B. cereus or P. syringae riboswitch sequences fused to the lacZ gene were cloned into the vectors pDG1661 or pRS414, respectively. The two vectors were transformed into B. subtilis or E. coli, and gene expression was examined by addition of X-gal into grown cultures or quantified with Miller assays.
The 5′ UTR of COG0038 (eriC^F homolog) was amplified from P. syringae DC3000 genomic DNA as an EcoRI-BamHI fragment and cloned into the translational reporter vector pRS414. […] Specifically, the region encompassing nucleotides −248 to +24 with respect to the beginning of the eriC^F ORF was cloned as a translational fusion in pRS414, wherein the 8th codon of the ORF was fused in frame to the 9th codon of lacZ reporter gene. Mutations in the regulatory region were generated by a three-step PCR approach using methods described previously (A. Nahvi, et al., Chem. Biol. 9, 1043 (2002)).
(§3) E. coli strains BW25113 and its crcB KO derivative strain harboring the eriC^F riboswitch reporter construct were streaked on modified LB plates with carbenicillin (100 μg mL^−1) and X-gal (800 μg ml^−1). Plates included 0, 0.2 or 50 mM NaF.

[4] = tested on: crcB KO strain of E. coli; experiment: microbe, parasite or virus in culture
Description: as §2, §1, §3

crcB motif RNA [5] = conditions: read-out: KD for fluoride binding; in-line probing
Description: (§4) Briefly, in vitro transcribed RNA were 5′ ^32P-radiolabeled and trace amounts (˜1 nM) were incubated at room temperature for 48 hours (unless otherwise indicated) in the presence of 100 mM KCl, 50 mM Tris-HCl (pH 8.3 at 23° C.), and 20 mM MgCl2. Cleavage products were separated by using denaturing 10% PAGE and imaged with a PhosphorImager (Molecular Dynamics). ImageQuant 5.1 was used to establish band intensities. Exceptions to the typical in-line probing methods are detailed in the following sections.

crcB motif RNA [6] = conditions: read-out: KD for fluoride binding; in-line probing; remark: listed apart in the source
Description: as §4

[7] = tested on: riboswitch associated with B. cereus crcB fused to lacZ; conditions: increasing amounts of fluoride, X-gal and Miller assays with ONPG
Description: as §2

[8] = tested on: E. coli cells lacking the gene to express the fluoride transporter protein CrcB; experiment: Fluoride riboswitch beta-galactosidase reporter (4-MUG) in E. coli lacking CrcB with imipramine; format: cell-based; conditions: same construct in cells lacking CrcB, compared with cells having CrcB
From the text: (§5) A fluoride riboswitch fused to a beta-galactosidase reporter gene is present in E. coli cells and cells are exposed to concentrations of sodium fluoride and imipramine (x-axis) as noted. The structure of imipramine is shown below.

[9] = target: T1, fluoride transporter protein CrcB (Escherichia coli, UniProt P37002); experiment: Fluoride riboswitch beta-galactosidase reporter (4-MUG) in E. coli with imipramine; format: cell-based
T1 construct: this bacterial species does code for a CrcB protein; endogenous in cells; host or cells: E. coli
T1 sequence (P37002 whole entry): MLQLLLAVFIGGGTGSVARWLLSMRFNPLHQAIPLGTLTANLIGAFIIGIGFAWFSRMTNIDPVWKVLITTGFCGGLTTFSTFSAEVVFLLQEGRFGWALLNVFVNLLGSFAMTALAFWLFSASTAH
From the text: as §5

[10] = ligands at 10 mM or as in footnotes of Tables 1 and 2 (CO ~0.9 mM, NO 1 mM)

Description for WT E. coli cells: For each bacterial strain, an overnight culture was set up of the desired bacteria the previous day. The majority of the growth curves were conducted in 350 μL LB medium that initially was not supplemented with salt. […] The desired concentration of NaF or NaCl was subsequently added as designated for each culture after a 1:100 dilution of an overnight culture. Wells with NaF concentrations below 1 mM were supplemented with 1 mM NaCl. Each condition was set up in duplicate or triplicate. Every fifteen minutes the 100-well plate was shaken at medium intensity for 10 seconds and the OD600 was automatically measured for a period of 16 hours. The data was analyzed using Microsoft Excel.

In the case of `[Ca+2].[Cl-].[Cl-]` [Ca^2+, calcium chloride], the “effect on fluoride-dependent RNA structural modulation” value [1] is reported as “diminishes RNA structural modulation; also recorded: complete loss of modulation”.
In the case of `[F-].[Na+]` [NaF, sodium fluoride], the “conformational changes of 78 Psy crcB motif RNA” value [1] is reported as “trigger identical conformational changes”, the “concentration at which growth becomes noticeably reduced” value (WT E. coli cells; liquid media) is reported as 30 mM and the “minimum inhibitory concentration (MIC)” value (WT E. coli cells; liquid media, 16 hr growth curves) is reported as about 200 mM.
In the case of `CCCC[N+](CCCC)(CCCC)CCCC.[F-]` [TBAF, Tetra-n-butylammonium fluoride], the “conformational changes of 78 Psy crcB motif RNA” value [1] is reported as “trigger identical conformational changes”.
`Br` [bromide] was tested, and the “binding / structure modulation by other ligands” value (“binding / structure modulation” for short) [1] was “rejects”.
For `[C-]#[O+]` [carbon monoxide], the “binding / structure modulation” value [1, 10] was “rejected”.
`Cl` [chloride] was tested, and the “78 Psy aptamer structure on exposure to chloride” value [1] was “remains unchanged” and the “binding / structure modulation” value [1] was “rejects”.
With `F` [fluoride] the growth inhibition ([2]; 1 mM fluoride) was “almost no growth inhibition”, the “fluoride concentration in culture medium required to cause growth inhibition and reporter expression” value ([2]; eriC^F-rescued cells) was about 10 mM and the “fluoride concentration in growth medium yielding maximal reporter gene signal” value ([3]; crcB K.O. strain) was 1 mM. For the same compound, the β-galactosidase expression ([3]; solid medium supplemented with 50 mM fluoride) was “readily apparent”, the growth ([4]; 50 mM fluoride) was “fails to grow” and the MIC ([4]; Escherichia coli, 16 h, read-out: minimum inhibitory concentration (MIC)) was over 1 mM. For the same compound, the Kd (crcB motif RNA [5]) was about 50 µM, the “selectivity of aptamer binding, fluoride versus chloride” value [1] was “at least 40,000 fold” and the Kd ([1]; read-out: apparent dissociation constant (KD)) was ~60 µM and 60 µM. For the same compound, the Kd (crcB motif RNA [6]) was about 50 µM, the β-galactosidase reporter activity [7] was “induced high levels of expression” and the growth (WT E. coli cells; 50 mM fluoride) was “robust growth”.
For `O` [hydroxide ions, hydroxide], the “RNA conformational changes with hydroxide” value ([1]; pH 9.7) was “do not trigger RNA conformational changes”.
With `CN(C)CCCN1c2ccccc2CCc2ccccc21` [imipramine, 3-(10,11-dihydro-5H-dibenzo[b,f]azepin-5-yl)-N,N-dimethylpropan-1-amine] the “level of reporter gene expression with imipramine” value [8] was “substantially reduced”, the “reporter gene expression (fluorescence, 4-MUG)” value ([9]; 330 μM imipramine, with sodium fluoride) was “increased expression of the reporter gene” and the “action on fluoride transporter CrcB” value ([9]; concluded from reporter results with and without CrcB) was “blocks this fluoride transporter”.
For `I` [iodide], the “binding / structure modulation” value [1, 10] was “rejects”.
In the case of `[N]=O` [nitric oxide], the “binding / structure modulation” value [1, 10] is reported as “rejected”.
In the case of `F.[F-].[K+]` [potassium bifluoride], the “conformational changes of 78 Psy crcB motif RNA” value [1] is reported as “trigger identical conformational changes”.
